The source of these data is patent US20200181089A1, “4-ANILINO-QUINOLINE COMPOUNDS AS ANTI-CANCER AGENTS” (INSERM (INSTITUT NATIONAL DE LA SANTÉ ET DE LA RECHERCHE …, priority 2016, published 2020).

Where two headings read alike, the source gives them in different places.

Data set [1] has as its system EZH2 transcription. As to the kind of experiment: Ability to decrease EZH2 mRNA level in A375 (dose-response, quantitative PCR). It counts as cell-based. To be noted: Homo sapiens, A-375, 96 h; A375 cells, incubated 4 days; read-out: IC50 (concentration necessary to obtain 50% of EZH2 transcription activity). The procedure:
Typically, 30000-50000 cells were plated in six-well culture plates and incubated 24 h later with increasing concentration of NIK inhibitors or vehicle. Cells were incubated with the inhibitors for 4 days prior to harvesting for RNA extraction and PCR. Total RNA was isolated from cells using the RNAeasy minikit (Qiagen) according to the manufacturer's procedure. Reverse transcription was performed using the AMV reverse transcription system (Promega), and quantitative PCR was performed with Power Sybr green (Applied Biosystems, Life Technologies, Grand Island, N.Y.) following the manufacturer's instructions. The PCR was carried out on a Step One plus Real-Time PCR system (Applied Biosystems). All analyses were done in triplicate, and a melting curve analysis was performed to control for product quality and specificity. Expression levels were calculated using the comparative method of relative quantification, with SB34 as a normalizer. The data were analyzed for statistical significance using Student's t-test. The results are presented as the mean±SEM relative to the control. Primers were obtained from primer bank or primer depot (http://pga.mgh.harvard.edu/primerbank/, https://primerdepot.nci.nih.gov), and their specificity was verified using primer blast (http://www.ncbi.nlm.nih.gov/tools/primer-blast/).
Here IC50 represents the concentration necessary to obtain 50% of EZH2 transcription activity.

Data set [2] concerns normal human fibroblast. As to the kind of experiment: Fibroblast viability assay (trypan blue exclusion). It counts as cell-based. To be noted: 96 h. The procedure: (§1) Cell viability effects were evaluated by trypan blue exclusion assay. Briefly, cells were seeded into 12-well plate and grown in media supplemented with indicated compound at 10 μM for 96 h. Cells were washed with PBS and detached by trypsinization, collected and colored by trypan blue. Dead and living cells were counted and cell viability was calculated as follow: Viability (%)=100−[(dead cell number/total cells)*100].

Data set [3] is described as follows: Tolerability in treated CT26 tumor-bearing mice. It counts as in vivo. Conditions: 10 mg/kg intraperitoneal. The procedure: In order to evaluate the new approach in different types of cancer, compound 5 was tested in colorectal cancer cells. CT26 cells were subcutaneously injected into syngeneic mice. After 3 days, the mice were treated intraperitoneally with DZNEP, compound 5, and anti-PD1 as monotherapies and combined. Additional treatments in which the mice received DZNEP or compound 5 plus anti-PD1 with an anti-CD8 antibody added to neutralize the T-cell response were included. […] Signs of tumor regression and tumor-free mice were even observed. […] The number of M1 macrophages and the percentage of M1 macrophages among the total macrophage population were increased in all the treated mice, especially in the mice that received the combination treatments (FIG. 2C). Each of the treatments increased the numbers and activation of DCs and the numbers of CD8+ and CD4+ cells infiltrating the tumors (FIG. 2D). […] Finally, CD3+ T-cells were isolated by negative selection from the spleens of the treated mice and cocultured with naïve CT26 cells.

Data set [4] relates to A375 cells. Kind of data set: A375 cell proliferation assay (trypan blue exclusion). Conditions: Homo sapiens, A-375, treated/untreated cell number; for activity at 1 µM: A375, 1 μM; for activity at 10 µM: A375, 10 μM. The format is cell-based. The procedure:
Cells were counted using a Malassez chamber. The average and standard deviation were calculated from triplicate experiments. Antiproliferative effects were evaluated by trypan blue exclusion assay. Briefly, cells were seeded into 12-well plate and grown in media supplemented with indicated compound at 1 or 10 μM for 48 h or 96 h. Cells were washed with PBS and detached by trypsinization, collected and colored by trypan blue. Dead and living cells were counted and proliferation was calculated as follow: Proliferation (%)=[(treated cell number/untreated cells number)*100].

Data set [5] deals with normal human melanocytes or fibroblasts. Kind of data set: Proliferation of normal human melanocytes or fibroblasts. It counts as cell-based.
In data set [6] the test system is B16 melanoma cells. As to the kind of experiment: Established subcutaneous B16 melanoma in C57Bl6 mice. It counts as in vivo. The procedure:
FIG. 3. Compound 5 treatment is effective when used alone in reducing tumor growth in vivo and potentiates the anti-PD1 immune response in C57Bl6 mice subcutaneously injected with B16 melanoma cells. B16 cells were injected subcutaneously and the tumors were let to grow until an average volume of 100 mm^3 was reached. The mice were then sorted into four groups with similar average tumor volume and standard deviation. Treatment with compound 5 (10 mg/kg) or control (DMSO) was given by intraperitoneal injection every day. Anti-PD1 antibodies (125 μg/mouse) was given every other day alone or combined with daily injection of compound 5. Number of mice for each treatment group=8.
(§2) 0.5×10^6 cells in 100 μL PBS were subcutaneously injected into 4-week-old female C57Bl/6 mice (for the B16 experiment) or Balb/c mice (for the CT26 experiments). DZNEP is an inhibitor of the catalytic activity of EZH2 and was used as an additional control.
The inventors then asked whether compound 5 was able to increase the survival rate of mice with already established tumor and, if that was the case, also in this situation was able to synergize with anti-PD1 treatment. They thus decided to use the model B16 melanoma cells in C57Bl6 mice. B16 cells were again injected subcutaneously and the tumors were let to grow until an average volume of 100 mm3 was reached. […]

Data set [7] concerns normal human melanocyte. Kind of data set: Melanocyte viability assay (trypan blue exclusion). The format is cell-based. To be noted: 96 h. Here is the method: as §1
Data set [8] concerns CT26 cells. Kind of data set: Spleen CD3+ T-cells of treated mice cocultured with naïve CT26 cells. The format is in vivo. To be noted: coculture 24 or 48 h. Here is the method: 1 mg/kg DZNEP and 10 mg/kg compound 5 were used for the subsequent experiments. Tridimensional measurements were performed daily, and the tumor volume was expressed as mm^3. […] Freshly collected tumors were dissociated and stained for immune-cell infiltrate using a flow cytometer. CD3+ T cells from spleen tissue were negatively selected using myltennyi magnetic columns and put in contact with naïve CT26 cells for 24 or 48 h. The CT26 cells were subsequently stained with DAPI (0.5 μg/ml, Molecular Probes, Grand Island, N.Y., USA). The T-cells were stained with CD8, perforin, and granzyme B antibodies and analyzed immediately by flow cytometry using a MACS-Quant Analyzer (Miltenyi Biotec, Paris, France).
Spleens were extracted and disaggregated, and the cells were resuspended in PBS. T-cells were isolated by CD3 negative selection to avoid activation. […] The flow-through containing the enriched fraction of CD3 cells was collected and analyzed by flow cytometry to determine the yield of the enrichment (CD3 cells constituted a minimum 70% of the total cells collected).

Data set [9] deals with CT26 colon-cancer cells. As to the kind of experiment: Subcutaneous CT26 colon-cancer tumors in Balb/c mice. The format is in vivo. To be noted: compound 5 10 mg/kg, DZNEP 1 mg/kg, FIG. 2A. The procedure:
A. Tumor progression in Balb/c mice subcutaneously injected with CT26 cells (0.5×10^6). After 3 days, treatment with compound 5 (10 mg/kg) or DMSO was given by intraperitoneal injection every other day starting 3 days after the first injection. Two groups of mice (with either DMSO or compound 5 treatment) were treated with anti-PD1 antibody injected subcutaneously every other day. Number of mice for each treatment group=10.
as §2
1 mg/kg DZNEP and 10 mg/kg compound 5 were used for the subsequent experiments. Tridimensional measurements were performed daily, and the tumor volume was expressed as mm^3. […] The T-cells were stained with CD8, perforin, and granzyme B antibodies and analyzed immediately by flow cytometry using a MACS-Quant Analyzer (Miltenyi Biotec, Paris, France).
Tumors were extracted and disaggregated using […] strainers. […] FoxP3 was detected by cell intranuclear staining employing the BD Pharmingen™ Mouse Foxp3 Buffer Set according to the manufacturer's instructions. IFN-γ, perforin, and granzyme B were detected by intracellular staining using the BD Cytofix/Cytoperm™ Kit following the manufacturer's instructions. […]

The mark [10] stands for this setting: 48 h, read-out: Proliferation (%) At 1 μM - 48 H.
The mark [11] stands for this setting: 96 h, read-out: Proliferation (%) At 1 μM - 96 H.
Where [12] appears, read: 48 h, read-out: Proliferation (%) At 10 μM - 48 H.
The mark [13] stands for this setting: 96 h, read-out: Proliferation (%) At 10 μM - 96 H.

For `Cc1ccc(Nc2ccnc3cc(Cl)ccc23)cc1` [Compound 2, 4-((4-methylphenyl)amino)-7-chloroquinolinium chloride], the IC50 in [1] is 10 µM.
For `COc1ccc(Nc2ccnc3cc(N4CCOCC4)ccc23)cc1` [Compound 13, N-(4-methoxyphenyl)-7-morpholinoquinolin-4-amine], the IC50 in data set [1] was 15 µM.
Turning to `COc1ccc(Nc2ccnc3cc(Cl)ccc23)cc1` [Compound 5, 4-((4-methoxyphenyl)amino)-7-chloroquinolinium chloride], the “Viability (%) at 10 μM Fibroblast” value in [2] is listed as 98.6%. Moreover, the “clinical signs of toxicity” value in data set [3] is “no clinical signs of toxicity”. Besides, in data set [3], the “liver enzymes in the blood” value is recorded as “remained in the normal range”. The “liver weight and systemic glycemia compared to the other mice” value in data set [3] is on record as “similar”. In addition, the activity at 1 µM turned out to be 91% in data set [4] (setting [10]) and 77.1% in data set [4] (setting [11]). The activity at 10 µM in data set [4] (setting [12]) came out at 67.5%; in data set [4] (setting [13]), 58.1%. The “proliferation of normal human melanocytes or fibroblasts” value in data set [5] is listed as “Neither treatment had any effect”. Also, the IC50 in data set [1] turned out to be 5 µM. Also, the “death dependent from treatment” value in data set [6] (B16 experiment) is listed as “no death dependent from compound 5 treatment was observed”. The median survival in data set [6] (days from injection, treatment started at tumor volume 100 mm3, control 13 days) was determined as 20 days. Also, the “Viability (%) at 10 μM Melanocyte” value in [7] is recorded as 99.5%.
As to `COc1cccc(Nc2ccnc3cc(Cl)ccc23)c1` [Compound 6, 4-((3-methoxyphenyl)amino)-7-chloroquinolinium chloride], the IC50 in [1] is 15 µM.
`Nc1nccc2c1ncn2C1C=C(CO)C(O)C1O` (stereo not shown) [DZNEP]: in data set [8], the “killing of naïve CT26 cells by T-cells isolated from treated mice” value is “more effective in killing CT26 cells”. The “growth of the CT26 tumors” value in [9] is on record as “significantly reduced”.
Regarding `Oc1ccc(Nc2ccnc3cc(Cl)ccc23)cc1Cl` [Compound 8, 4-((4-hydroxy-3-chlorophenyl)amino)-7-chloroquinolinium chloride], the “Viability (%) at 10 μM Fibroblast” value in data set [2] turned out to be 98.6%. Further, the activity at 1 µM was determined as 81.3% in data set [4] (setting [10]) and 74% in data set [4] (setting [11]). In addition, the figures for the activity at 10 µM in [4] (setting [12]) and in [4] (setting [13]) were 82.1% and 67.5%, respectively. Besides, the IC50 in [1] amounted to 15 µM. Further, the “Viability (%) at 10 μM Melanocyte” value in [7] is recorded as 98.0%.
